Experimental data from PubChem BioAssay (NCI).
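Step 1: Grow cells in 96-well plates. Step 2: Expose to compound for 48 hours at 5 concentrations. Step 3: Interpolate endpoints linearly; if unreached, use highest concentration. At the TGI there is no net growth.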 Where a SMILES comes first, the peptide text is derived from it. [ ]: non-standard residue; d: D form. pGlu = O=C1CC[CH](C(=O)O)N1; Thz = O=C(O)[CH]1CSCN1

Key:
Test in all cases: inhibition of tumour cell growth, NCI panel, 48 h
[1] = test system: COLO 205 colon
[2] = test system: OVCAR-4 ovarian
[3] = test system: HL-60(TB) leukemia
[4] = test system: SNB-19 CNS
[5] = test system: MCF7 breast
[6] = test system: PC-3 prostate
[7] = test system: KM12 colon
[8] = test system: UO-31 renal
[9] = test system: SF-539 CNS
[10] = test system: HCT-15 colon
[11] = test system: EKVX NSCLC

## Nn1c(CCCCCCCCc2nnc(-c3c(O)ccc4ccccc34)n2N)nnc1-c1c(O)ccc2ccccc12
[1]
  TGI: > 100 µM
[2]
  TGI: > 100 µM
[3]
  TGI: > 100 µM
[4]
  TGI: > 100 µM
[5]
  TGI: > 100 µM
[6]
  TGI: > 100 µM
[7]
  TGI: > 100 µM
[8]
  TGI: > 100 µM
[9]
  TGI: > 100 µM
[10]
  TGI: > 100 µM

## C[C@H](Nc1nc(N)c(N=O)c(=O)n1C)C(=O)O
[1]
  TGI: > 10 µM
[2]
  TGI: > 10 µM
[3]
  TGI: > 10 µM
[4]
  TGI: > 10 µM
[5]
  TGI: > 10 µM
[6]
  TGI: > 10 µM
[7]
  TGI: > 10 µM
[11]
  TGI: > 10 µM
[9]
  TGI: > 10 µM
[10]
  TGI: > 10 µM

## COC(=O)c1cc2c(c(C(=O)OC)c1)CCC2
[2]
  TGI: > 100 µM
[3]
  TGI: > 100 µM
[4]
  TGI: > 100 µM
[5]
  TGI: > 100 µM
[6]
  TGI: > 100 µM
[11]
  TGI: > 100 µM
[8]
  TGI: > 100 µM
[9]
  TGI: > 100 µM
[10]
  TGI: > 100 µM

## CCOC(=O)c1c(N)sc2c1CC(C)CC2 (configuration not stated)
[1]
  TGI: 89.5 µM
[2]
  TGI: > 100 µM
[3]
  TGI: 23.2 µM
[4]
  TGI: > 100 µM
[5]
  TGI: > 100 µM
[6]
  TGI: > 100 µM
[7]
  TGI: > 100 µM
[11]
  TGI: > 100 µM
[8]
  TGI: > 100 µM
[10]
  TGI: > 100 µM

## Cc1nc2c(c(N3CCN(C)CC3)n1)Cc1ccccc1-2
[1]
  TGI: > 100 µM
[3]
  TGI: > 100 µM
[4]
  TGI: 74.6 µM
[5]
  TGI: > 100 µM
[6]
  TGI: > 100 µM
[7]
  TGI: > 100 µM
[11]
  TGI: > 100 µM
[8]
  TGI: 62.8 µM
[9]
  TGI: > 100 µM
[10]
  TGI: > 100 µM

## C=C(/C=C/C=C(\C)CCC=C(C)C)[C@@H]1CC[C@]2([C@H](CCCO)/C(=C(/C)C=O)CC[C@]2(C)O)[C@@H]1O
[1]
  TGI: 26 µM
[3]
  TGI: 35.4 µM
[4]
  TGI: 52.7 µM
[7]
  TGI: 15.4 µM
[11]
  TGI: 44.1 µM
[8]
  TGI: 48 µM
[9]
  TGI: 25.1 µM
[10]
  TGI: 34.2 µM

## O=C(OC1=CCN(Br)C1=O)C1=C(O)C(=O)N(Br)C1
[1]
  TGI: 54.4 µM
[2]
  TGI: > 100 µM
[3]
  TGI: 52.2 µM
[4]
  TGI: 43.6 µM
[5]
  TGI: > 100 µM
[6]
  TGI: > 100 µM
[7]
  TGI: > 100 µM
[11]
  TGI: 77.8 µM
[8]
  TGI: > 100 µM
[10]
  TGI: > 100 µM

## COc1ccc(S(=O)(=O)Nc2ccc(-c3csc(N4C(=O)/C(=C/c5ccccc5[N+](=O)[O-])N=C4c4ccccc4)n3)cc2)cc1Cl
[1]
  TGI: > 100 µM
[2]
  TGI: > 100 µM
[3]
  TGI: > 100 µM
[4]
  TGI: > 100 µM
[5]
  TGI: > 100 µM
[6]
  TGI: > 100 µM
[7]
  TGI: > 100 µM
[8]
  TGI: 73.8 µM
[9]
  TGI: > 100 µM
[10]
  TGI: 81.2 µM

## O=C1CCC(C(=O)N2CSCC2C(=O)O)N1 (configuration not stated) ([pGlu]-[Thz]-OH; configuration not given here)
[3]
  TGI: > 100 µM
[4]
  TGI: > 100 µM
[5]
  TGI: > 100 µM
[6]
  TGI: > 100 µM
[7]
  TGI: > 100 µM
[8]
  TGI: > 100 µM
[9]
  TGI: > 100 µM
[10]
  TGI: > 100 µM

## Cc1c(NC(=S)Nc2ccc([N+](=O)[O-])cc2)c(=O)n(-c2ccccc2)n1C
[1]
  TGI: > 100 µM
[3]
  TGI: > 100 µM
[4]
  TGI: > 100 µM
[5]
  TGI: > 100 µM
[6]
  TGI: > 100 µM
[7]
  TGI: > 100 µM
[11]
  TGI: > 100 µM
[8]
  TGI: > 100 µM
[9]
  TGI: > 100 µM
[10]
  TGI: > 100 µM

## O=C(Cc1ccc2ccccc2c1)NCc1ccc(C(=O)NCCc2ccccc2)cc1
[1]
  TGI: > 100 µM
[2]
  TGI: > 100 µM
[4]
  TGI: > 100 µM
[5]
  TGI: > 100 µM
[6]
  TGI: > 100 µM
[7]
  TGI: > 100 µM
[11]
  TGI: > 100 µM
[8]
  TGI: > 100 µM
[10]
  TGI: > 100 µM

## O=C1c2ccccc2N(O)C1(c1ccccc1)C1CCCC=C1N1CCOCC1 (configuration not stated)
[1]
  TGI: > 100 µM
[3]
  TGI: > 100 µM
[4]
  TGI: > 100 µM
[11]
  TGI: > 100 µM
[8]
  TGI: > 100 µM
[9]
  TGI: > 100 µM
[10]
  TGI: > 100 µM

## Cc1cn(C2CC(n3cc(Cn4ccc(=O)[nH]c4=O)nn3)C(CO)O2)c(=O)[nH]c1=O (configuration not stated)
[1]
  TGI: > 100 µM
[2]
  TGI: > 100 µM
[3]
  TGI: > 100 µM
[4]
  TGI: > 100 µM
[5]
  TGI: > 100 µM
[6]
  TGI: > 100 µM
[7]
  TGI: > 100 µM
[8]
  TGI: > 100 µM
[9]
  TGI: > 100 µM
[10]
  TGI: > 100 µM

## CCCCCCN(CCCCCC)CCC(=O)c1ccc2cc(Br)c3ccccc3c2c1
[1]
  TGI: 80.4 µM
[3]
  TGI: 56.2 µM
[4]
  TGI: > 100 µM
[5]
  TGI: 54.9 µM
[6]
  TGI: > 100 µM
[7]
  TGI: 52.9 µM
[11]
  TGI: > 100 µM
[8]
  TGI: > 100 µM
[9]
  TGI: 52.5 µM
[10]
  TGI: > 100 µM

## S=P1(Sc2ccccc2)Oc2ccc3ccccc3c2-c2c(ccc3ccccc23)O1
[1]
  TGI: > 100 µM
[2]
  TGI: > 100 µM
[3]
  TGI: > 100 µM
[4]
  TGI: > 100 µM
[5]
  TGI: > 100 µM
[7]
  TGI: > 100 µM
[11]
  TGI: > 100 µM
[8]
  TGI: > 100 µM
[9]
  TGI: > 100 µM
[10]
  TGI: > 100 µM

## Nc1ncnc2c1ncn2[C@H]1C=C[C@@H](NO)C1
[1]
  TGI: > 100 µM
[2]
  TGI: > 100 µM
[4]
  TGI: > 100 µM
[5]
  TGI: > 100 µM
[6]
  TGI: > 100 µM
[7]
  TGI: > 100 µM
[11]
  TGI: > 100 µM
[8]
  TGI: > 100 µM
[9]
  TGI: > 100 µM
[10]
  TGI: > 100 µM

## Cc1ccc(S(=O)(=O)n2cc(C=O)c(-c3cn(S(=O)(=O)c4ccc(C)cc4)cc3-c3cn(S(=O)(=O)c4ccc(C)cc4)cc3C=O)c2)cc1
[1]
  TGI: > 100 µM
[3]
  TGI: > 100 µM
[4]
  TGI: > 100 µM
[5]
  TGI: 87.2 µM
[6]
  TGI: > 100 µM
[7]
  TGI: > 100 µM
[11]
  TGI: > 100 µM
[8]
  TGI: > 100 µM
[9]
  TGI: 76.4 µM
[10]
  TGI: > 100 µM

## CC(C)(C)c1ccc2c(c1)OP1(Oc3c(Cl)cc(Cl)c4cccnc34)(O2)Oc2ccc(C(C)(C)C)cc2O1
[1]
  TGI: 31.3 µM
[2]
  TGI: 23.3 µM
[3]
  TGI: 10.1 µM
[4]
  TGI: 22.8 µM
[5]
  TGI: 17.3 µM
[7]
  TGI: 20.4 µM
[11]
  TGI: > 35.7 µM
[8]
  TGI: 19.6 µM
[9]
  TGI: 21.2 µM
[10]
  TGI: 19.9 µM

## Nc1nc(Cl)cc(NCC2(CCO)CCC2)n1
[2]
  TGI: > 100 µM
[3]
  TGI: > 100 µM
[4]
  TGI: > 100 µM
[5]
  TGI: > 100 µM
[6]
  TGI: > 100 µM
[7]
  TGI: > 100 µM
[11]
  TGI: > 100 µM
[8]
  TGI: > 100 µM
[9]
  TGI: > 100 µM
[10]
  TGI: > 100 µM

## CCOC(=O)C12CCC(=O)N1N(C)c1ncccc1N2 (configuration not stated)
[1]
  TGI: > 100 µM
[2]
  TGI: > 100 µM
[4]
  TGI: > 100 µM
[5]
  TGI: > 100 µM
[7]
  TGI: > 100 µM
[11]
  TGI: > 100 µM
[8]
  TGI: > 100 µM
[9]
  TGI: > 100 µM
[10]
  TGI: > 100 µM

## NCC(=O)Nc1ccccc1
[2]
  TGI: > 100 µM
[4]
  TGI: > 100 µM
[6]
  TGI: > 100 µM
[7]
  TGI: > 100 µM
[11]
  TGI: > 100 µM
[8]
  TGI: > 100 µM
[10]
  TGI: > 100 µM

## O=P1(c2ccccc2)C(c2ccccc2)CCC1c1ccccc1 (configuration not stated)
[1]
  TGI: > 100 µM
[3]
  TGI: 43.4 µM
[4]
  TGI: > 100 µM
[5]
  TGI: > 100 µM
[6]
  TGI: > 100 µM
[7]
  TGI: > 100 µM
[11]
  TGI: > 100 µM
[8]
  TGI: > 100 µM
[9]
  TGI: > 100 µM
[10]
  TGI: > 100 µM
